According to US6286513A, “Methods for treating superficial bladder carcinoma” (priority 1998, dated 2001):

Tests used:
[1] = tested on: high grade tumors (grade III); assay: Recurrence in patients with high grade tumors (Example 6); type: in vivo
Description: Twenty-seven patients from whom high grade tumors (i.e., grade III)had been removed were treated weekly for six weeks with the high efficacy therapy as described above in example 1 and 23 patients from whom high grade tumors had been removed were treated weekly for six weeks with the customary experimental therapy as described in example 1. All patients were evaluated as described in example 1. The median time to recurrence was not reached for patients treated by the high efficacy treatment versus 179 days for patients treated by the customary experimental treatment. The projected 5-year recurrence free value is 52% for the patients receiving the high efficacy treatment and 19% for the customary experimental treatment.

[2] = tested on: low grade tumors (grade I and grade II); assay: Recurrence in patients with low grade tumors (Example 5); type: in vivo
Description: Eighty-one patients from whom low grade tumors (i.e., grade I and grade II) had been removed were treated weekly for six weeks with the high efficacy therapy as described above in example 1 and 64 patients from whom low grade tumors were had been removed were treated weekly for six weeks with the customary experimental therapy as described in example 1. All patients were evaluated as described in example 1. The median time to recurrence was 637 days for patients treated by the high efficacy treatment versus 339 days for patients treated by the customary experimental treatment. The projected 5-year recurrence free value is 35% for the high efficacy treatment and 21% for the customary experimental treatment.

[3] = tested on: multifocal Ta, T1, Tis tumors; assay: Recurrence in patients with multifocal tumors (Example 3, FIG. 9); type: in vivo
Description: Sixty-five of patients from whom 3 or more Ta, T1,or Tis tumors had been removed were treated weekly for six weeks with the high efficacy therapy as described above in example 1 and 52 patients from whom 3 or more Ta, T1, or Tis tumors had been removed were treated weekly for six weeks with standard MMC intravsical therapy as described in example 1. All patients received the follow-up described in example 1.

aneuploid tumors = assay: Recurrence in patients with aneuploid tumors; type: in vivo; conditions: high efficacy therapy
[4] = tested on: recurrent Ta, T1 or Tis tumors; assay: Recurrence in patients with recurrent tumors (Example 2, FIG. 12); type: in vivo; conditions: for median time to recurrence / projected 5-year tumor recurrence free rate: recurrent tumors
Description: Seventy-seven patients from whom recurrent Ta, T1 or Tis tumors had been resected were treated weekly for six weeks with the high efficacy therapy as described above in example 1 and 68 patients from whom recurrent Ta, T1 or Tis tumors had been resected were treated by the customary experimental therapy as described in example 1. All patients had undergone at least one previous round of therapy, to several previous rounds of resection plus chemotherapy consisting of treatment with BCG, MMC, doxorubicin and doxorubicin and cisplatin. For example, 44 patients treated with the high efficacy treatment and 42 patients treated with the customary experimental method had at least two tumor resections. Thirty-eight patients in each of the two treatment arms fad received previous tumor resections plus at least one series of adjuvant chemotherapy. All patients were evaluated as described in example 1.

[5] = tested on: superficial bladder carcinomas; conditions: customary experimental MMC, weekly, 1 mg/ml in 20-40 ml, six to eight weeks; cited from earlier work
[6] = in vitro, previous results; cited from earlier work
[7] = Overall bladder wall exposure to MMC: urinary AUC, C^n×T, urine production and pH (Table 3); type: in vivo, patients; conditions: for Urinary AUC / Urinary C^n × T: mean ± standard deviation; for Urinary C^n × T: n = 1.24
Description: A commonly used measure of drug exposure for anticancer agent is the product of exposure concentration and duration, or AUC (area under the curve). […] The drug exposure in the urinary bladder can be determined from the drug concentration in the urine and can serve as a measure of exposure to the tumor tissue.

[8] = tested on: large tumors, i.e. tumors >5 cm; assay: Recurrence in patients with large tumors; type: in vivo; conditions: high efficacy therapy; large tumors >5 cm
[9] = customary experimental treatment
[10] = high efficacy vs customary experimental therapy

## COC12C(COC(N)=O)C3=C(C(=O)C(C)=C(N)C3=O)N1CC1NC12 (stereo not drawn) [MMC]
[1]; [9]
  median time to recurrence: 179 days
  projected 5-year recurrence free value: 19%
[1]; high efficacy treatment
  median time to recurrence: not reached
  projected 5-year recurrence free value: 52%
[2]; [9]
  median time to recurrence: 339 days
  projected 5-year recurrence free value: 21%
[2]; high efficacy treatment
  median time to recurrence: 637 days
  projected 5-year recurrence free value: 35%
[3]; customary experimental therapy, multifocal tumors
  projected 5-year recurrence free rate: 17%
[3]; high efficacy therapy, multifocal tumors
  projected 5-year recurrence free rate: 32%
[3]; high efficacy therapy, multiple tumors
  delaying and preventing tumor recurrence, vs customary therapy: more effective
[3]; standard treatment (so in the source), multifocal tumors
  median time to tumor recurrence: 488 days
Aneuploid tumors
  delaying and preventing tumor recurrence, vs customary therapy: more effective
[4]; customary experimental therapy
  median time to recurrence: 339 days
  projected 5-year tumor recurrence free rate: 26%
[4]; high efficacy therapy
  median time to recurrence: 754 days
  projected 5-year tumor recurrence free rate: 39%
[4]; high efficacy therapy, recurrent tumors despite other adjuvant therapies
  delaying and preventing tumor recurrence, vs customary therapy: more effective
[5]
  additional patients without recurrent tumor at 1 year vs transurethral resection alone: 1-13%
[6]
  relative importance of drug concentration and treatment duration: the drug concentration is more important than treatment duration
[7]; customary experimental therapy
  Urinary AUC: 24.2 ± 14.7 mg·min/mL
  Urinary C^n × T: 97.2 ± 77.08 mg^n.min/ml
[7]; high efficacy therapy
  Urinary AUC: 57.6 ± 37.2 mg·min/mL
  Urinary C^n × T: 291 ± 283 mg^n.min/ml
[7]; [10]
  average drug exposure measured as AUC, high efficacy relative to customary: 2 times
  average drug exposure measured as C^n×T, high efficacy relative to customary: 2.4 times
[8]
  delaying and preventing tumor recurrence, vs customary therapy: more effective
